Assay results taken from paper PMC7461568, “Novel Cyclic Lipopeptide Antibiotics: Effects of Acyl Chain Length and Position” (International Journal of Molecular Sciences, 2020).
In brackets after ≈: the same amount, converted by molar mass. Like-named read-outs stand apart in the source and are kept apart here. Where a SMILES comes first, the peptide text is derived from it. Bridges are numbered along the chain shown (N, C = ends). [ ]: non-standard residue; d: D form. The star is where a group is joined. Bip = N[C@@H](Cc1ccc(-c2ccccc2)cc1)C(=O)O; 2Nal = N[C@@H](Cc1ccc2ccccc2c1)C(=O)O; X1 = CC[C@H](C)CCCCC(=O)*; Dab = NCC[C@H](N)C(=O)O; Hexanoyl = CCCCCC(=O)*; AEEA = NCCOCCOCC(=O)O; Butyryl = CCCC(=O)*

What was measured:
human erythrocytes = test: Hemolysis of red blood cells; settings: 1 h; for %H, percent hemolytic activity against red blood cells at 150 μM: human erythrocytes, 0.5% v/v RBC suspension in PBS, peptide 150 μM, 37 °C, absorbance 414 nm, melittin positive control, triplicate
Experimental: The hemolysis experiments were performed according to the protocol described in Reference. The peptides were tested at concentrations from 2.35–150 μM, using melittin as positive control and PBS as negative control. One premade tablet of PBS was dissolved in 200 mL Milli-Q water. The solution was kept in the refrigerator for a maximum of two days. The day before the test, the positive control wells of the 96 well polypropylene plates were precoated with 150 μL of melittin 5 μM solution in PBS. The solution was prepared in Protein LoBind Eppendorf tubes. The day of the test, the solution was discarded and the wells were washed three times with 150 μL PBS. A melittin 2.50 μM solution in PBS was prepared in Protein LoBind Eppendorf tubes—500 μL for every plate to be used. The mass of the peptide needed to reach a final concentration of 300 μM (to start testing down from 150 μM) was calculated, since a volume of 500 μL was desirable. […] The peptides were dissolved in PBS and tested in triplicate.
In a 96 well polypropylene plate, 150 μL of peptide solution was transferred to three wells in Row A. Therefore, each plate could accommodate up to four peptides. A 2-fold serial dilution of the peptides was obtained by transferring 75 μL of the solutions from Row A to the corresponding wells in Row B, mixing a couple of times. From Row B, 75 μL was transferred to Row C and so on until Row G, where 75 μL was discarded after mixing. Volumes of 75 μL melittin (2.50 μM) was transferred to the positive control wells in H1–H6. Preparation of the RBC suspension: 1 mL of whole blood was transferred to a cryotube with 3 mL of PBS, and then it was gently mixed and centrifuged for 8 min at 3000 rpm. The supernatant was discarded, and the process was repeated twice; with 4 mL at 3000 rpm and 4 mL at 4000 rpm, respectively. From the final RBC pellet, 40 μL was transferred to 8 mL of PBS (multiplied by the number of test plates needed). This corresponded to a 0.5% v/v RBC suspension. The suspension was gently mixed and transferred into a CAPPOrigami reservoir. Using a multichannel pipette, 75 μL of the suspension was transferred into each well and mixed in the direction of increasing concentration. The control wells were mixed separately. The plates were covered with BioradMicroseal foil and incubated at 37 °C for 1 h. The plates (maximum two) were centrifuged for 10 min at 4000 rpm, followed by transferring of supernatant (60 μL) from each well into the corresponding wells in a clear ELISA plate. The absorbance (A) of each well was measured at λ = 414 nm using the software program Softmax(R) Pro.

[1] = Hydrophobicity by analytical RP-HPLC (%B at peak elution); format: physicochemical; settings: chromatographic, percentage of mobile phase B at the peak elution time
Source text: To investigate the effect of attaching fatty acids to a macrocycle, fatty acid tails of different lengths were used. When the carbon chain was elongated, the hydrophobicity of the peptide was increased gradually. Herein, the hydrophobicity is expressed as the percentage of mobile phase B at the peak elution time on an RP-HPLC system.

E. coli ATCC 25922 = format: cell-based, Escherichia coli; settings: MHB-II, inoculum 5 × 10^5 CFU/mL, 37 °C, 18–24 h, visual read-out, triplicate
Experimental: (§1) In the original report on S3(B), MIC experiments were carried out by using non-cation-adjusted MHB-I media. To this, bovine serum albumin (BSA) and acetic acid were added. The rationale for choosing a medium without cations is that cation-adjusted media (MHB-II) in some cases causes substantial inhibition of the activity of cationic peptides. Furthermore, some peptides are at risk of precipitation when diluted into MHB medium, which can be avoided via the addition of BSA and acetic acid. However, the use of MHB-II is favorable to imitate the in vivo conditions as much as possible. Both media were tested with and without the addition of BSA and acetic acid by trial and error. The use of pure MHB-II was compatible with S3(B) and its fatty acid analogues, and therefore was chosen for the MIC determinations. Noticeably, MHB-I with BSA and acetic acid led to precipitation of lipopeptides in the present work.
(§2) Cation-adjusted Mueller-Hinton broth (MHB-II) media (BD BBLTM Beef extract powder, BD BactoTMCasamino acids, and DIFCO soluble starch was from Becton, Dickinson and Company©, Franklin Lakes, NJ, USA). MHB media supplemented with 0.2% BSA was from Sigma Aldrich (St. Louis, MO, USA) and 0.01% acetic acid from VWR®. The 96 well plate cell-culture cluster, round-bottom, polypropylene plates, and V-shaped 96 well polypropylene plates were purchased from Corning® Inc., Costar®, Corning, NY, USA. Microseal® film was obtained from Bio-Rad Laboratories, Inc., Hercules, CA, USA. A VersaMaxTM Tunable Microplate Reader (Molecular Devices LLC, Sunnyvale, CA, USA) was used and the data were evaluated on a Softmax® Pro (Molecular Devices LLC).
(§3) The MIC experiments were performed according to a protocol adapted from Wiegand et al., with minor modifications. The MICs were determined in triplicate. The peptides were dissolved in Milli-Q water to produce 10 mg/mL stock solutions in small glass containers. The bacterial isolates to be tested were streaked onto agar plates to obtain single colonies, and the plates were incubated at 37 °C for 18–24 h. The strains tested were S. aureus ATCC 29213, P. aeruginosa ATCC 27853, E. coli ATCC 25922, A. baumannii ATCC 19606, and K. pneumonia ATCC 13883. Test compounds were prepared in 2-fold dilutions in 50 μL volumes in polypropylene microtiter plates. Bacterial cultures grown to OD600 = 0.1–0.4 were diluted to a desired OD600 of 0.001–0.002 corresponding to 1 × 10^6 CFU/mL. Next, 50 μL bacterial suspension was added to the microtiter plates, giving a final bacterial inoculum of 5 × 10^5 CFU/mL per well. The plates were incubated at 37 °C for 18–24 h. […] The MIC values were visually evaluated, and the MIC was set to the lowest concentration […] based on triplicate measurements. […]

K. pneumonia ATCC 13883 = format: cell-based, Klebsiella pneumoniae; settings: K. pneumoniae ATCC 13883; MHB-II, inoculum 5 × 10^5 CFU/mL, 37 °C, 18–24 h, visual read-out, triplicate
Experimental: as §1, §2, §3

S. aureus ATCC 29213 = test: microbe, parasite or virus in culture; format: cell-based, Staphylococcus aureus; settings: Staphylococcus aureus, ATCC29213, read-out: Minimum inhibitory concentration, SA
Experimental: as §1, with “The use of pure MHB-II was compatible with S3(B) and its fatty acid analogues, and therefore was chosen for the MIC determinations. Noticeably, MHB-I with BSA and acetic acid led to precipitation of lipopeptides in the present work.” left out
(§4) Cation-adjusted Mueller-Hinton broth (MHB-II) media (BD BBLTM Beef extract powder, BD BactoTMCasamino acids, and DIFCO soluble starch was from Becton, Dickinson and Company©, Franklin Lakes, NJ, USA). […] A VersaMaxTM Tunable Microplate Reader (Molecular Devices LLC, Sunnyvale, CA, USA) was used and the data were evaluated on a Softmax® Pro (Molecular Devices LLC).
(§5) The MIC experiments were performed according to a protocol adapted from Wiegand et al., with minor modifications. The MICs were determined in triplicate. […] The MIC values were visually evaluated, and the MIC was set to the lowest concentration […] based on triplicate measurements. […]

P. aeruginosa ATCC 27853 [2] = settings: for log reduction of cell count within first hour of treatment: 1 h, MHB-II, 37 °C, shaking, n = 3
Experimental: The MIC constitutes a limited measure for antimicrobial activity. It indicates whether or not AMPs in different concentrations are able to prevent visible growth of bacteria.
Time-kill experiments were performed on balanced exponentially growing cultures of P. aeruginosa ATCC 27853. We used balanced cultures as described in Oddo et al.. Briefly, overnight cultures were prepared in MHB-II broth at 37 °C with shaking. Overnight cultures were back-diluted and grown exponentially for no less than 8–10 generations before experimentation. When experiments were done, exponentially growing cultures were back-diluted to an OD600 = 0.0005 approximately 5 × 10^5 CFU, into fresh MHB-II heated to 37 °C. Samples (250 μL) were taken at time points 0, 1, 3, 5, and 24 h. Samples were spun down at 8000× g for 5 min and washed in 1 mL of NaCl 0.9% before being spun down again and re-suspended in 250 μL NaCl 0.9%. From this, 10-fold dilution series were prepared and 10 μL samples were spot-plated in triplicate onto LB-agar. From the undiluted sample, 100 μL samples were also plated, i.e., giving a detection limit of 10 CFU/mL.

P. aeruginosa ATCC 27853 [3] = format: cell-based, Pseudomonas aeruginosa; settings: MHB-II, inoculum 5 × 10^5 CFU/mL, 37 °C, 18–24 h, visual read-out, triplicate
Experimental: as §1, with “The use of pure MHB-II was compatible with S3(B) and its fatty acid analogues, and therefore was chosen for the MIC determinations. Noticeably, MHB-I with BSA and acetic acid led to precipitation of lipopeptides in the present work.” left out
as §4, §5

A. baumannii ATCC 19606 = format: cell-based, Acinetobacter baumannii; settings: MHB-II, inoculum 5 × 10^5 CFU/mL, 37 °C, 18–24 h, visual read-out, triplicate
Experimental: as §1, with “The use of pure MHB-II was compatible with S3(B) and its fatty acid analogues, and therefore was chosen for the MIC determinations. Noticeably, MHB-I with BSA and acetic acid led to precipitation of lipopeptides in the present work.” left out
as §4, §5

SMILES | %H, percent hemolytic activity against red blood cells at 150 μM (human erythrocytes) | %B at peak of elution in analytical HPLC (hydrophobicity) [1] | Minimum inhibitory concentration, EC (E. coli ATCC 25922) | Minimum inhibitory concentration, KP (K. pneumonia ATCC 13883) | further results
CCCC(=O)NCC[C@@H]1NC(=O)[C@H](CCN)NC(=O)[C@H](CCCNC(=N)N)NC(=O)[C@H](Cc2ccc3ccccc3c2)NC(=O)[C@H](CCN)NC(=O)[C@H](CC(N)=O)NC(=O)[C@H](CCN)NC(=O)[C@H](Cc2ccc3ccccc3c2)NC(=O)COCCOCCNC1=O [(C4)^5] (cyclo([Dab][2Nal]R[Dab][Dab](Butyryl)[AEEA][2Nal][Dab]N)) | 5% | 62% | 64 µg/mL (≈ 50 µM) | >64 µg/mL | %H, percent hemolytic activity against red blood cells at 150 μM (human erythrocytes; listed as (C4)^7): 4%; %B at peak of elution in analytical HPLC (hydrophobicity) ([1]; listed as (C4)^7): 64%
CN[C@H](CC(C)C)C(=O)N[C@H]1C(=O)N[C@@H](CC(N)=O)C(=O)N[C@H]2C(=O)N[C@H]3C(=O)N[C@H](C(=O)N[C@H](C(=O)O)c4cc(O)cc(O)c4-c4cc3ccc4O)[C@H](O)c3ccc(c(Cl)c3)Oc3cc2cc(c3O[C@@H]2O[C@H](CO)[C@@H](O)[C@H](O)[C@H]2O[C@H]2C[C@](C)(N)[C@H](O)[C@H](C)O2)Oc2ccc(cc2Cl)[C@H]1O [Vancomycin, reference compound] |  |  |  |  | MIC (S. aureus ATCC 29213): 0.5 µg/mL (≈ 0.345 µM)
CC[C@H](C)CCCCC(=O)N[C@@H](CCN)C(=O)N[C@H](C(=O)N[C@@H](CCN)C(=O)N[C@H]1CCNC(=O)[C@H]([C@@H](C)O)NC(=O)[C@H](CCN)NC(=O)[C@H](CCN)NC(=O)[C@H](CC(C)C)NC(=O)[C@@H](CC(C)C)NC(=O)[C@H](CCN)NC1=O)[C@@H](C)O [Colistin, reference compound] (X1-[Dab]T[Dab][Dab][Dab][dL]L[Dab][Dab]T; lactam 4-C (inferred); N-terminus assumed) |  |  | 0.25 µg/mL (≈ 0.214 µM) | 0.5 µg/mL (≈ 0.428 µM) | log reduction of cell count within first hour of treatment (P. aeruginosa ATCC 27853 [2]; 5 × MIC ((C8)^5 40 μg/mL; colistin 2.5 μg/mL)): 4.5 log; cell count / growth after 24 h (P. aeruginosa ATCC 27853 [2]; 5 × MIC ((C8)^5 40 μg/mL; colistin 2.5 μg/mL), 24 h, detection limit 10 CFU/mL): No growth
N=C(N)NCCC[C@@H]1NC(=O)[C@H](Cc2ccc3ccccc3c2)NC(=O)[C@H](CCN)NC(=O)[C@H](CC(N)=O)NC(=O)[C@H](CCN)NC(=O)[C@H](Cc2ccc3ccccc3c2)NC(=O)COCCOCCNC(=O)[C@H](Cc2ccc(-c3ccccc3)cc2)NC(=O)[C@H](CCN)NC1=O [S3(B)] (cyclo([Dab][2Nal]R[Dab][Bip][AEEA][2Nal][Dab]N)) | 77% | 71% |  |  | log reduction of cell count within first hour of treatment (P. aeruginosa ATCC 27853 [2]; 1 × MIC (8 μg/mL)): 2.5 log; HD50 (hemolysis) (human erythrocytes; red cells of human): 69 µM
CCCCCC(=O)NCC[C@@H]1NC(=O)[C@H](CCN)NC(=O)[C@H](CCCNC(=N)N)NC(=O)[C@H](Cc2ccc3ccccc3c2)NC(=O)[C@H](CCN)NC(=O)[C@H](CC(N)=O)NC(=O)[C@H](CCN)NC(=O)[C@H](Cc2ccc3ccccc3c2)NC(=O)COCCOCCNC1=O [(C6)^5] (cyclo([Dab][2Nal]R[Dab][Dab](Hexanoyl)[AEEA][2Nal][Dab]N)) | 13% | 65% | 32 µg/mL (≈ 24.5 µM) | >64 µg/mL | Minimum inhibitory concentration, PA (P. aeruginosa ATCC 27853 [3]): 16 µg/mL (≈ 12.2 µM); %H, percent hemolytic activity against red blood cells at 150 μM (human erythrocytes; listed as (C6)^7): 8%; %B at peak of elution in analytical HPLC (hydrophobicity) ([1]; listed as (C6)^7): 69%; Minimum inhibitory concentration, AB (A. baumannii ATCC 19606): 64 µg/mL (≈ 48.9 µM)
